Results as given in the supplement of paper PMC10307832.

Tests used:
Test in all cases: relative viability (nuclei count vs DMSO), 5 days (fraction); higher = more cells survive
A-427 = tested on: A-427
In short: (§1)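 Values are medians from duplicate plates. Each reflects relative viability, defined as the nuclei count of treated wells over that of vehicle wells. Lung cancer cell lines in 1536-well plates were pin-tool dosed one day after seeding with one drug alone or with a fixed anchor-drug dose plus five library-drug doses (not always all listed) in √10 steps, then fixed, stained and imaged at 4× after 5 days.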

ABC-1 = tested on: ABC-1
In short: as §1

EPLC-272H = tested on: EPLC-272H
In short: as §1

HCC-15 = tested on: HCC-15
In short: as §1

LC-2-ad = tested on: LC-2-ad
In short: as §1

LK-2 = tested on: LK-2
In short: as §1

NCI-H1734 = tested on: NCI-H1734
In short: as §1

NCI-H1793 = tested on: NCI-H1793
In short: as §1

NCI-H1915 = tested on: NCI-H1915
In short: as §1

NCI-H1944 = tested on: NCI-H1944
In short: as §1

NCI-H2009 = tested on: NCI-H2009
In short: as §1

NCI-H2023 = tested on: NCI-H2023
In short: as §1

NCI-H2342 = tested on: NCI-H2342
In short: as §1

NCI-H2347 = tested on: NCI-H2347
In short: as §1

NCI-H322M = tested on: NCI-H322M
In short: as §1

NCI-H358 = tested on: NCI-H358
In short: as §1

NCI-H441 = tested on: NCI-H441
In short: as §1

NCI-H522 = tested on: NCI-H522
In short: as §1

NCI-H647 = tested on: NCI-H647
In short: as §1

NCI-H838 = tested on: NCI-H838
In short: as §1

RERF-LC-KJ = tested on: RERF-LC-KJ
In short: as §1

SW 1573 = tested on: SW 1573
In short: as §1

UMC-11 = tested on: UMC-11
In short: as §1

CN1CCN(CCOc2cc(OC3CCOCC3)c3c(Nc4c(Cl)ccc5c4OCO5)ncnc3c2)CC1 [Saracatinib] + CC(=O)c1c(C)c2cnc(Nc3ccc(N4CCNCC4)cn3)nc2n(C2CCCC2)c1=O [Palbociclib] (partner 0.5 µM)
relative viability (A-427; first compound 0.02 µM): 0.531
relative viability (A-427; first compound 0.2 µM): 0.457
relative viability (A-427; first compound 0.6325 µM): 0.525
relative viability (A-427; first compound 2 µM): 0.506
relative viability (ABC-1; first compound 0.02 µM): 0.624
relative viability (ABC-1; first compound 0.2 µM): 0.646
relative viability (ABC-1; first compound 0.6325 µM): 0.891
relative viability (ABC-1; first compound 2 µM): 0.622
relative viability (EPLC-272H; first compound 0.02 µM): 0.342
relative viability (EPLC-272H; first compound 0.2 µM): 0.287
relative viability (EPLC-272H; first compound 0.6325 µM): 0.413
relative viability (EPLC-272H; first compound 2 µM): 0.305
relative viability (HCC-15; first compound 0.02 µM): 0.763
relative viability (HCC-15; first compound 0.2 µM): 0.677
relative viability (HCC-15; first compound 0.6325 µM): 0.758
relative viability (HCC-15; first compound 2 µM): 0.753
relative viability (LC-2-ad; first compound 0.02 µM): 0.571
relative viability (LC-2-ad; first compound 0.2 µM): 0.448
relative viability (LC-2-ad; first compound 0.6325 µM): 0.504
relative viability (LC-2-ad; first compound 2 µM): 0.434
relative viability (LK-2; first compound 0.02 µM): 0.496
relative viability (LK-2; first compound 0.2 µM): 0.405
relative viability (LK-2; first compound 0.6325 µM): 0.528
relative viability (LK-2; first compound 2 µM): 0.313
relative viability (NCI-H1734; first compound 0.02 µM): 0.362
relative viability (NCI-H1734; first compound 0.6325 µM): 0.372
relative viability (NCI-H1734; first compound 2 µM): 0.329
relative viability (NCI-H1793; first compound 0.02 µM): 0.363
relative viability (NCI-H1793; first compound 0.2 µM): 0.311
relative viability (NCI-H1793; first compound 0.6325 µM): 0.299
relative viability (NCI-H1793; first compound 2 µM): 0.278
relative viability (NCI-H1915; first compound 0.02 µM): 0.488
relative viability (NCI-H1915; first compound 0.2 µM): 0.468
relative viability (NCI-H1915; first compound 0.6325 µM): 0.537
relative viability (NCI-H1915; first compound 2 µM): 0.462
relative viability (NCI-H1944; first compound 0.02 µM): 0.3
relative viability (NCI-H1944; first compound 0.2 µM): 0.281
relative viability (NCI-H1944; first compound 0.6325 µM): 0.305
relative viability (NCI-H1944; first compound 2 µM): 0.255
relative viability (NCI-H2009; first compound 0.02 µM): 0.261
relative viability (NCI-H2009; first compound 0.2 µM): 0.136
relative viability (NCI-H2009; first compound 0.6325 µM): 0.201
relative viability (NCI-H2009; first compound 2 µM): 0.136
relative viability (NCI-H2023; first compound 0.02 µM): 0.379
relative viability (NCI-H2023; first compound 0.2 µM): 0.31
relative viability (NCI-H2023; first compound 0.6325 µM): 0.282
relative viability (NCI-H2023; first compound 2 µM): 0.19
relative viability (NCI-H2342; first compound 0.02 µM): 0.528
relative viability (NCI-H2342; first compound 0.2 µM): 0.479
relative viability (NCI-H2342; first compound 0.6325 µM): 0.524
relative viability (NCI-H2342; first compound 2 µM): 0.545
relative viability (NCI-H2347; first compound 0.02 µM): 0.468
relative viability (NCI-H2347; first compound 0.2 µM): 0.397
relative viability (NCI-H2347; first compound 0.6325 µM): 0.428
relative viability (NCI-H2347; first compound 2 µM): 0.432
relative viability (NCI-H322M; first compound 0.02 µM): 0.534
relative viability (NCI-H322M; first compound 0.2 µM): 0.38
relative viability (NCI-H322M; first compound 0.6325 µM): 0.46
relative viability (NCI-H322M; first compound 2 µM): 0.306
relative viability (NCI-H358; first compound 0.02 µM): 0.136
relative viability (NCI-H358; first compound 0.2 µM): 0.118
relative viability (NCI-H358; first compound 0.6325 µM): 0.127
relative viability (NCI-H358; first compound 2 µM): 0.0903
relative viability (NCI-H441; first compound 0.02 µM): 0.243
relative viability (NCI-H441; first compound 0.2 µM): 0.196
relative viability (NCI-H441; first compound 0.6325 µM): 0.199
relative viability (NCI-H441; first compound 2 µM): 0.182
relative viability (NCI-H522; first compound 0.02 µM): 0.914
relative viability (NCI-H522; first compound 0.2 µM): 0.802
relative viability (NCI-H522; first compound 0.6325 µM): 0.911
relative viability (NCI-H522; first compound 2 µM): 0.756
relative viability (NCI-H647; first compound 0.02 µM): 0.383
relative viability (NCI-H647; first compound 0.2 µM): 0.239
relative viability (NCI-H647; first compound 0.6325 µM): 0.347
relative viability (NCI-H647; first compound 2 µM): 0.265
relative viability (NCI-H838; first compound 0.02 µM): 0.224
relative viability (NCI-H838; first compound 0.2 µM): 0.215
relative viability (NCI-H838; first compound 0.6325 µM): 0.216
relative viability (NCI-H838; first compound 2 µM): 0.182
relative viability (RERF-LC-KJ; first compound 0.02 µM): 1.05
relative viability (RERF-LC-KJ; first compound 0.2 µM): 1.05
relative viability (RERF-LC-KJ; first compound 0.6325 µM): 1.01
relative viability (RERF-LC-KJ; first compound 2 µM): 1.06
relative viability (SW 1573; first compound 0.02 µM): 0.416
relative viability (SW 1573; first compound 0.2 µM): 0.399
relative viability (SW 1573; first compound 0.6325 µM): 0.382
relative viability (SW 1573; first compound 2 µM): 0.28
relative viability (UMC-11; first compound 0.02 µM): 0.339
relative viability (UMC-11; first compound 0.2 µM): 0.374
relative viability (UMC-11; first compound 0.6325 µM): 0.38
relative viability (UMC-11; first compound 2 µM): 0.309
